The values below come from publication PMC8964227, “IP-Se-06, a Selenylated Imidazo[1,2-a]pyridine, Modulates Intracellular Redox State and Causes Akt/mTOR/HIF-1α and MAPK Signaling Inhibition, Promoting Antiproliferative Effect and Apoptosis in Glioblastoma Cells” (Oxidative Medicine and Cellular Longevity, 2022).

Assay [1] relates to A172 cells. The assay can be described thus: MTT cytotoxicity assay, A172. In kind it is cell-based, human. The following applies: for IC50: Homo sapiens, A 172, 72 h, MTT; for Selectivity Index (SI): IC50 in normal cell line (HT-22)/IC50 in A172. The protocol:
(§1) Cell viability after treatments with selenylated imidazo[1,2-a]pyridines (IP-Se-01–IP-Se-10) was analyzed by quantitative colorimetric assay with MTT, according to Mosmann. IP-01, a prototype molecule without the addition of the selenium in its structure, was also tested. A172 and HT-22 cells were cultured in 96-well plates (10^4 cells/well). After confluence, cells were exposed to selenylated imidazo[1,2-a]pyridines (0.1, 1, 10, 100, and 1000 μM) for up to 72 h. After this phase, cell medium was removed and the cells were washed twice with PBS and incubated with MTT solution (0.5 mg/mL) for 2 h. The insoluble formazan was dissolved by adding DMSO (100 μL/well), and colorimetric determination of MTT reduction was measured at 550 nm in a multireader Infinite M200 Tecan. Three independent experiments were conducted, and the results are presented as IC50 (half maximal inhibitory concentration).

The subject of assay [2] is HT-22 cells. The assay can be described thus: MTT cytotoxicity assay, HT-22. In kind it is cell-based, mouse. The following applies: Mus musculus, HT-22; 72 h, MTT. The protocol:
as §1
Background: Tetrazolium assays rely on reduction of a dye to a coloured formazan, in cell work by metabolically active cells.

What is called IC50 is the concentration at which inhibition is half-maximal. On to `Cc1ccn2c([Se]c3ccc(Cl)cc3)c(-c3ccccc3)nc2c1` [IP-Se-04], for which the IC50 in assay [1] was 43.6 µM; in assay [2], 306 µM. Also, the “Selectivity Index (SI)” value in assay [1] is on record as 7.0.
Taken in the same sequence, the figures for `Cc1ccn2c([Se]c3ccccc3)c(-c3ccccc3)nc2c1` [IP-Se-01] were 98.8 µM, 75.4 µM and 0.7.
`CCCC[Se]c1c(-c2ccccc2)nc2cc(C)ccn12` [IP-Se-08]: in assay [1], 20.9 µM corresponded to half-maximal inhibition (IC50) and the “Selectivity Index (SI)” value is 1.5. The compound further had an IC50 in assay [2] of 31.2 µM.
Take `COc1ccc([Se]c2c(-c3ccccc3)nc3cc(C)ccn23)cc1` [IP-Se-03]: in assay [1], the midpoint of inhibition, the IC50, lay at 27.6 µM and the “Selectivity Index (SI)” value was found to be 0.1. This compound registered an IC50 in assay [2] of 3.9 µM.
On to `Cc1ccn2c([Se]c3cccs3)c(-c3ccccc3)nc2c1` [IP-Se-07], for which, in assay [1], the half-inhibitory concentration (IC50) amounted to 27.9 µM and the “Selectivity Index (SI)” value was determined as 0.4. In assay [2], this compound gave an IC50 of 10.7 µM.
`Cc1ccn2c([Se]c3cccc4ccccc34)c(-c3ccccc3)nc2c1` [IP-Se-05]: the IC50 was determined as 20.8 µM in assay [1] and 206 µM in assay [2]. In addition, in assay [1], the “Selectivity Index (SI)” value turned out to be 9.9.
With `Cc1ccc([Se]c2c(-c3ccccc3)nc3cc(C)ccn23)cc1` [IP-Se-02], in assay [1], the IC50 came out at 73.2 µM and the “Selectivity Index (SI)” value is listed as 1.9. In assay [2], this compound yielded an IC50 of 144 µM.
On to `Cc1ccn2cc(-c3ccccc3)nc2c1` [IP-01], for which, in assay [1], the IC50 is 76.3 µM and the “Selectivity Index (SI)” value was 2.0. Also, 153 µM corresponded to half-maximal inhibition in assay [2] (IC50).
As for `COc1ccc(-c2nc3cc(C)ccn3c2[Se]c2ccccc2)cc1` [IP-Se-10], the IC50 in assay [1] worked out at 18.8 µM; in assay [2], 30 µM. Moreover, in assay [1], the “Selectivity Index (SI)” value was found to be 1.6.
For `c1ccc([Se]c2c(-c3ccccc3)nc3ncccn23)cc1` [IP-Se-09], in that order: 21.8 µM, 6 µM and 0.3.
